Source: EP0745595A1, “3-(3-Aryloxyphenyl)-1-(substituted methyl)-s-triazine-2,4,6-oxo or thiotrione herbicidal agents” (American Cyanamid Company, priority 1995, dated 1996)

Tests used:
Format in all cases: in vivo
[1] = test system: ZEA MAYS L.; test: Postemergence herbicidal evaluation, ZEAMX (Corn, Field)
How it was run: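 Corn seedlings were raised in jiffy flats for roughly two weeks, then sprayed postemergence with the test material dispersed in 50/50 acetone/water containing 0.5% TWEEN®20 surfactant, using a nozzle at 40 psi. Plants were kept on greenhouse benches under standard care and visually rated on a 0-9 scale four to five weeks after treatment.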

[2] = test system: ABUTILON THEOPHRASTI, MEDIC.; test: Postemergence herbicidal evaluation, ABUTH (Velvetleaf); details: for ABUTH, herbicide rating (0-9): rated four to five weeks after treatment, averaged
How it was run: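 Velvetleaf (Abutilon theophrasti) seedlings were raised in jiffy flats for about two weeks and then sprayed postemergence. The test compound was dispersed in a 50/50 acetone/water mixture containing 0.5% TWEEN®20 and applied through a nozzle operating at 40 psi. Plants were kept on greenhouse benches and rated 0-9 four to five weeks after treatment.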

[3] = test system: TRITICUM AESTIVUM, CV. APOLLO; test: Postemergence herbicidal evaluation, TRZAWO (Wheat, Winter, CV. APOLLO)
Method: In the tests, seedling plants are grown in jiffy flats for about two weeks. The test compounds are dispersed in 50/50 acetone/water mixtures containing 0.5% TWEEN®20, a polyoxyethylene sorbitan monolaurate surfactant of Atlas Chemical Industries, […] through a spray nozzle operating at 40 psi for a predetermined time. After spraying, the plants are placed on greenhouse benches and are cared for in the usual manner, commensurate with conventional greenhouse practices. From four to five weeks after treatment, the seedling plants are examined and rated according to the rating system set forth below. Where more than one test is involved for a given compound, the data are averaged.
Plant species employed in these evaluations are reported by header abbreviation, common name and scientific name.
Results of herbicide evaluation are expressed on a rating scale (0-9). The scale is based upon a visual observation of plant stand, vigor, malformation, size, chlorosis and overall plant appearance as compared with a control.

[4] = test system: ECHINOCHLOA CRUS-GALLI, (L) BEAU; test: Postemergence herbicidal evaluation, ECHCG (Barnyardgrass); parameters: key to ECHCG rating / Herbicidal effect rating, ECHCG / ECHCG: 0-9 visual rating scale vs untreated control
How it was run: (§1)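 Two-week-old seedlings sprayed with compound in 50/50 acetone/water plus 0.5% TWEEN 20 at about 0.125–0.500 kg/ha via nozzle at 40 psi. Kept in greenhouse; rated visually 4–5 weeks after treatment on a 0–9 scale versus untreated control, averaging repeat tests.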

[5] = test system: IPOMOEA SPP.; test: Postemergence herbicidal evaluation, IPOSS (Morningglory spp.); details: for IPOSS, herbicide rating (0-9): rated four to five weeks after treatment, averaged
How it was run: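 Seedlings of morningglory (Ipomoea spp.) were raised in jiffy flats for roughly two weeks. They were then sprayed postemergence through a nozzle at 40 psi with test compound dispersed in 50/50 acetone/water containing 0.5% TWEEN®20 surfactant. Plants were kept on greenhouse benches under standard care and visually rated 0-9 against controls four to five weeks after treatment.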

[6] = test system: CHENOPODIUM ALBUM, L.; test: Postemergence herbicidal evaluation, CHEAL (Lambsquarters, Common); details: for CHEAL, herbicide rating (0-9): rated four to five weeks after treatment, averaged
How it was run: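 Seedlings of common lambsquarters (Chenopodium album) were raised in jiffy flats for roughly two weeks, then sprayed postemergence through a nozzle at 40 psi with test compound dispersed in 50/50 acetone/water containing 0.5% TWEEN®20 surfactant. Plants were kept on greenhouse benches under standard care and rated visually on a 0-9 scale versus controls.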

[7] = test system: ORYZA SATIVA, L. TEBONNET; test: Rice tolerance to post-transplant applications under flooded paddy conditions, ORYSAT (Rice, Tebonnet); details: for ORYSAT: post-transplanted rice; for ORYSAT herbicidal rating (rice tolerance): post-transplant rice, rated three to four weeks after treatment;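 as to ORYSAT herbicidal rating (rice tolerance): applied to flooded soil surface three days after transplanting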
How it was run: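 Two ten-day-old Tebonnet rice seedlings transplanted into silt loam, flooded 1.5–3 cm; three days later the water surface treated with compounds in acetone/water at about 0.5, 0.25, 0.125 and 0.063 kg/ha. Visual 0–9 injury rating versus control after 3–4 weeks in greenhouse.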

[8] = test system: AMBROSIA ARTEMISIIFOLIA, L.; test: Postemergence herbicidal evaluation, AMBEL (Ragweed, Common); details: for AMBEL, herbicide rating (0-9): rated four to five weeks after treatment, averaged
How it was run: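 Common ragweed (Ambrosia artemisiifolia) seedlings were raised in jiffy flats for roughly two weeks, then sprayed postemergence through a nozzle at 40 psi with the test compound dispersed in 50/50 acetone/water carrying 0.5% TWEEN®20. The plants were kept on greenhouse benches under conventional care. Four to five weeks later, injury was rated visually on a 0-9 scale, and repeat tests were averaged.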

[9] = test system: SETARIA VIRIDIS, (L) BEAU; test: Postemergence herbicidal evaluation, SETVI (Foxtail, Green); parameters: key to SETVI rating / Herbicidal effect rating, SETVI / SETVI: 0-9 visual rating scale vs untreated control
How it was run: as §1

[10] = test system: GALIUM APARINE; test: Postemergence herbicidal evaluation, GALAP (Galium); parameters: key to GALAP rating / Herbicidal effect rating, GALAP / GALAP: 0-9 visual rating scale vs untreated control
How it was run: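 Galium (GALAP) seedlings were raised in jiffy flats for about two weeks, then sprayed with test compounds dispersed in 50/50 acetone/water containing 0.5% TWEEN®20, delivered through a nozzle at 40 psi. Plants were kept on greenhouse benches and visually rated 0-9 against a control four to five weeks later; repeat tests were averaged.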

[11] = test system: CHENOPODIUM ALBUM, L.; test: Preemergence herbicidal evaluation, CHEAL (Lambsquarters, Common); details: four to five weeks after treatment
How it was run: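 Preemergence, greenhouse: seed + potting soil sown on ~1 inch soil in cups; aqueous acetone spray, ~0.125–0.50 kg/ha equivalent; rated 0-9 vs control at 4–5 wk.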

For `Cn1c(=O)[nH]c(=O)n(-c2cc(Oc3c(F)cc(C(F)(F)F)cc3Cl)ccc2F)c1=O` [C, reference compound], the “Herbicidal effect rating, ZEAMX” value ([1]; 0.031 kg/ha) was 3.0, the “Herbicidal effect rating, ZEAMX” value ([1]; 0.063 kg/ha) was 3.5 and the “Herbicidal effect rating, ZEAMX” value ([1]; 0.125 kg/ha) was 4.0. The “Herbicidal effect rating, ZEAMX” value ([1]; 0.250 kg/ha) was 4.5, the “Herbicidal effect rating, ABUTH” value ([2]; 0.031 kg/ha) was 2.0 and the “Herbicidal effect rating, ABUTH” value ([2]; 0.063 kg/ha) was 4.0. For the same molecule, the “Herbicidal effect rating, ABUTH” value ([2]; 0.125 kg/ha) was 7.0, the “Herbicidal effect rating, ABUTH” value ([2]; 0.250 kg/ha) was 7.0 and the “Herbicidal effect rating, TRZAWO” value ([3]; 0.031 kg/ha) was 3.5. For the same molecule, the “Herbicidal effect rating, TRZAWO” value ([3]; 0.063 kg/ha) was 4.0, the “Herbicidal effect rating, TRZAWO” value ([3]; 0.125 kg/ha) was 4.5 and the “Herbicidal effect rating, TRZAWO” value ([3]; 0.250 kg/ha) was 4.5. For the same molecule, the “Herbicidal effect rating, ECHCG” value ([4]; 0.031 kg/ha) was 0.0, the “Herbicidal effect rating, ECHCG” value ([4]; 0.063 kg/ha) was 0.0 and the “Herbicidal effect rating, ECHCG” value ([4]; 0.125 kg/ha) was 0.0. The “Herbicidal effect rating, ECHCG” value ([4]; 0.250 kg/ha) was 2.0, the “Herbicidal effect rating, IPOSS” value ([5]; 0.031 kg/ha) was 4.0 and the “Herbicidal effect rating, IPOSS” value ([5]; 0.063 kg/ha) was 5.0. For the same molecule, the “Herbicidal effect rating, IPOSS” value ([5]; 0.125 kg/ha) was 6.0, the “Herbicidal effect rating, IPOSS” value ([5]; 0.250 kg/ha) was 9.0 and the “Herbicidal effect rating, CHEAL” value ([6]; 0.031 kg/ha) was 3.0. The “Herbicidal effect rating, CHEAL” value ([6]; 0.063 kg/ha) was 4.0, the “Herbicidal effect rating, CHEAL” value ([6]; 0.125 kg/ha) was 7.0 and the “Herbicidal effect rating, CHEAL” value ([6]; 0.250 kg/ha) was 7.0. For the same molecule, the ORYSAT ([7]; Rate 0.031 kg/ha) was 1.0, the ORYSAT ([7]; Rate 0.063 kg/ha) was 1.0 and the ORYSAT ([7]; Rate 0.125 kg/ha) was 3.0. The ORYSAT ([7]; Rate 0.250 kg/ha) was 5.0, the “Herbicidal effect rating, AMBEL” value ([8]; 0.031 kg/ha) was 1.0 and the “Herbicidal effect rating, AMBEL” value ([8]; 0.063 kg/ha) was 3.0. For the same molecule, the “Herbicidal effect rating, AMBEL” value ([8]; 0.125 kg/ha) was 4.0, the “Herbicidal effect rating, AMBEL” value ([8]; 0.250 kg/ha) was 6.0 and the “Herbicidal effect rating, SETVI” value ([9]; 0.031 kg/ha) was 0.0. For the same molecule, the “Herbicidal effect rating, SETVI” value ([9]; 0.063 kg/ha) was 0.0, the “Herbicidal effect rating, SETVI” value ([9]; 0.125 kg/ha) was 0.0 and the “Herbicidal effect rating, SETVI” value ([9]; 0.250 kg/ha) was 1.0. The “Herbicidal effect rating, GALAP” value ([10]; 0.031 kg/ha) was 2.0, the “Herbicidal effect rating, GALAP” value ([10]; 0.063 kg/ha) was 6.0 and the “Herbicidal effect rating, GALAP” value ([10]; 0.125 kg/ha) was 7.0. For the same molecule, the “Herbicidal effect rating, GALAP” value ([10]; 0.250 kg/ha) was 7.0.

With `COC(=O)Cn1c(=O)[nH]c(=O)n(-c2cc(Oc3ccc(C(F)(F)F)cc3Cl)ccc2[N+](=O)[O-])c1=O` [Compound 8, Methyl 3-{5-[(2-chloro-α,α,α-trifluoro-p-tolyl)oxy]-2-nitrophenyl}tetrahydro-2,4,6-trioxo-s-triazine-1(2H)-acetate] the “ABUTH, herbicide rating (0-9)” value ([2]; Rate 0.125 kg/ha) was 9.0, the “ABUTH, herbicide rating (0-9)” value ([2]; Rate 0.250 kg/ha) was 9.0 and the “ABUTH, herbicide rating (0-9)” value ([2]; Rate 0.500 kg/ha) was 9.0. The “IPOSS, herbicide rating (0-9)” value ([5]; Rate 0.125 kg/ha) was 9.0, the “IPOSS, herbicide rating (0-9)” value ([5]; Rate 0.250 kg/ha) was 9.0 and the “IPOSS, herbicide rating (0-9)” value ([5]; Rate 0.500 kg/ha) was 9.0. The “CHEAL, herbicide rating (0-9)” value ([6]; Rate 0.125 kg/ha) was 9.0, the “CHEAL, herbicide rating (0-9)” value ([6]; Rate 0.250 kg/ha) was 9.0 and the “CHEAL, herbicide rating (0-9)” value ([6]; Rate 0.500 kg/ha) was 9.0. The “ORYSAT herbicidal rating (rice tolerance)” value (shortened to “ORYSAT herbicidal rating”) ([7]; Rate 0.063 kg/ha) was 0.0, the “ORYSAT herbicidal rating” value ([7]; Rate 0.125 kg/ha) was 0.0 and the “ORYSAT herbicidal rating” value ([7]; Rate 0.250 kg/ha) was 1.0. For the same molecule, the “ORYSAT herbicidal rating” value ([7]; Rate 0.500 kg/ha) was 2.0, the “AMBEL, herbicide rating (0-9)” value ([8]; Rate 0.125 kg/ha) was 9.0 and the “AMBEL, herbicide rating (0-9)” value ([8]; Rate 0.250 kg/ha) was 9.0. The “AMBEL, herbicide rating (0-9)” value ([8]; Rate 0.500 kg/ha) was 9.0, the CHEAL rating ([11]; Rate 0.125 kg/ha) was 9.0 and the CHEAL rating ([11]; Rate 0.250 kg/ha) was 9.0. For the same molecule, the CHEAL rating ([11]; Rate 0.500 kg/ha) was 9.0.
